Laboratory results taken from patent US7803816B2, “MCH receptor antagonists” (Hoffmann-La Roche Inc., priority 2005, dated 2010).
Structures can show the parent of a compound that is named as a salt. Where two headings read alike, the source gives them in different places.

Target: T1, recombinant human MCHR1-receptors (Homo sapiens, UniProt Q99705)
T1 construct: expressed in transfected cells
Experiment: MCHR filter binding assay (competition binding)
Conditions: membranes from CHO-K1 cells expressing human MCHR1, 0.2 nM [Phe13,[125I]Tyr19]-MCH
Method: MCHR Filter Binding Assay
Competition binding assays were performed using membranes from CHO-K1 cells stably expressing the recombinant human MCHR1-receptors. Binding reactions (90 μl, final volume) were carried out at rt by incubating 2.8 μg membranes with 0.2 nM [Phe^13,[^125I]Tyr^19]-MCH (PerkinElmer) in the absence or presence of various concentrations of competing ligands in binding buffer (50 mM HEPES, 2.5 mM CaCl2, 0.05 mM BSA, 1 mM phenanthroline, 0.03 mM Triton X-100). [Phe^13,[^125I]Tyr^19]-MCH was added 15 min following the addition of unlabeled competing ligands, and the reactions incubated for a 1 h period. The reactions were terminated by rapid filtration over pretreated 96-well filter plates (Millipore; MultiScreen 0.65 μm GFB filter plates). Filter Plates were treated for 12 h at 4° C. with a 0.5% polyvinylpyrrolidone solution containing 1% BSA and 0.1% Tween 20, and then washed with an ice-cold solution of 10 mM Tris, pH 7.5 (5×200 μl). The plates were drained following a 5 min incubation with binding buffer (200 μl) at rt. Following termination of the binding reactions, the filters were washed with ice-cold binding buffer (4×200 μl). The filter plates were air dried for 30 min, scintillation cocktail (60 μl) added to each well and radioactivity bound to the plates was determined using a Micro-beta plate reader (Wallace/PerkinElmer).

[1] = read-out: IC50 (nM), in vitro activity (binding assay)
[2] = read-out: IC50 (nM), selected in vitro MCH-R binding data

T1 sequence (Q99705 whole entry): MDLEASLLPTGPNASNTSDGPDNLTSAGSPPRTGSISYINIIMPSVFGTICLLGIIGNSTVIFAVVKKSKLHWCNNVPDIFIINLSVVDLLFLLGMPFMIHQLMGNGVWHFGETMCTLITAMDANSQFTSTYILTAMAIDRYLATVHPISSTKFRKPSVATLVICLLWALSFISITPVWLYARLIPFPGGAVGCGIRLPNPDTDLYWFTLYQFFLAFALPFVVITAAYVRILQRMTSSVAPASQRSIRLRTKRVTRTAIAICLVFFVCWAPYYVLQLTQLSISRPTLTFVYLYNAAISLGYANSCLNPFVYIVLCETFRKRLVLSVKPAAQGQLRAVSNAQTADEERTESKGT

Row | Compound | IC50 [1] [nM] | IC50 [2] [nM]
1 | Cc1ccc2c(c1)nc(C(C)(C)O)n2C1CCN(CC2Cc3cccc(Cl)c3C2)CC1 (stereo not drawn) [Example 103, 2-{1-[1-(4-Chloro-indan-2-ylmethyl)-piperidin-4-yl]-5-methyl-1H-benzoimidazol-2-yl}-propan-2-ol; compound with trifluoroacetic acid] | 20 to 200 | 
2 | Cc1ccc2c(c1)nc(C)n2C1CCN(C[C@H]2Cc3ccc(NC(=O)C(C)C)cc3C2)CC1 [Example 48, N-{(S)-2-[4-(2,5-Dimethyl-benzoimidazol-1-yl)-piperidin-1-ylmethyl]-indan-5-yl}-isobutyramide] | 20 to 200 | 
3 | CO[C@H]1CN(C[C@@H]2Cc3ccc(NC(=O)C(C)C)cc3C2)CC[C@@H]1n1c(C)nc2cc(C)ccc21 [Example 34, N-{(R)-2-[(3S,4S)-4-(2,5-Dimethyl-benzoimidazol-1-yl)-3-methoxy-piperidin-1-ylmethyl]-indan-5-yl}-isobutyramide] | < 20 | 
4 | CO[C@@H]1CN(C[C@H]2Cc3ccc(Br)cc3C2)CC[C@H]1n1c(C)nc2cc(C)ccc21 [Example 1, 1-[(3R,4R)-1-((S)-5-Bromo-indan-2-ylmethyl)-3-methoxy-piperidin-4-yl]-2,5-dimethyl-1H-benzoimidazole] | < 20 | 20
5 | CO[C@@H]1CN(C[C@@H]2Cc3ccc(Br)cc3C2)CC[C@H]1n1c(C(C)(C)O)nc2cc(C)ccc21 [Example 115, 2-{1-[(3R,4R)-1-((R)-5-Bromo-indan-2-ylmethyl)-3-methoxy-piperidin-4-yl]-5-methyl-1H-benzoimidazol-2-yl}-propan-2-ol] | 20 to 200 | 
6 | CCC(=O)Nc1ccc2c(c1)C[C@H](CN1CC[C@@H](n3c(C)nc4cc(F)ccc43)[C@H](OC)C1)C2 [Example 25, N-{(R)-2-[(3R,4R)-4-(5-Fluoro-2-methyl-benzoimidazol-1-yl)-3-methoxy-piperidin-1-ylmethyl]-indan-5-yl}-propionamide; dihydrochloride] | 20 to 200 | 
7 | CCc1nc2cc(C)ccc2n1C1CCN(C[C@@H]2Cc3ccc(NC(=O)C(C)C)cc3C2)CC1OC (stereo partly drawn) [Example 61, N-{(R)-2-[4-(2-Ethyl-5-methyl-benzoimidazol-1-yl)-3-methoxy-piperidin-1-ylmethyl]-indan-5-yl}-isobutyramide] | < 20 | 
8 | N-{(R)-2-[(3R,4R)-4-(2,5-Dimethyl-benzoimidazol-1-yl)-3-methoxy-piperidine-1-carbonyl]-indan-5-yl}-isobutyramide [Example 57] | 200 to 5000 | 
9 | Cc1ccc2c(c1)nc(C(C)(C)O)n2C1CCN(CC2Cc3ccncc3C2)CC1 (stereo not drawn) [Example 12, 2-{1-[1-(6,7-Dihydro-5H-[2]pyrindin-6-ylmethyl)-piperidin-4-yl]-5-methyl-1H-benzoimidazol-2-yl}-propan-2-ol] | 20 to 200 | 
10 | Cc1ccc2c(c1)nc(C(C)(C)O)n2[C@@H]1CCN(C[C@H]2Cc3ccc(Br)cc3C2)CC1O (stereo in doubt) [Example 126, (3R,4R)-1-((S)-5-Bromo-indan-2-ylmethyl)-4-[2-(1-hydroxy-1-methyl-ethyl)-5-methyl-benzoimidazol-1-yl]-piperidin-3-ol] |  | 2
11 | Cc1ccc2c(c1)nc(Cl)n2C1CCN(C[C@@H]2Cc3ccc(NC(=O)C4CC4)cc3C2)CC1 [Example 30, Cyclopropanecarboxylic acid {(R)-2-[4-(2-chloro-5-methyl-benzoimidazol-1-yl)-piperidin-1-ylmethyl]-indan-5-yl}-amide; dihydrochloride] | 200 to 5000 | 
12 | CCCC(=O)Nc1ccc2c(c1)C[C@@H](CN1CCC(n3c(C)nc4cc(C)ccc43)CC1)C2 [Example 44, -{(S)-2-[4-(2,5-Dimethyl-benzoimidazol-1-yl)-piperidin-1-ylmethyl]-indan-5-yl}-butyramide] | 20 to 200 | 
13 | CCC(=O)Nc1ccc2c(c1)C[C@H](CN1CCC(n3c(C(C)C)nc4cc(C)ccc43)[C@@H](OC)C1)C2 (stereo in doubt) [Example 32, N-{(R)-2-[(3S,4S)-4-(2-Isopropyl-5-methyl-benzoimidazol-1-yl)-3-methoxy-piperidin-1-ylmethyl]-indan-5-yl}-propionamide] | < 20 | 
14 | Cc1ccc2c(c1)nc(CC(C)(C)O)n2C1CCN(CC2Cc3ccc(F)cc3C2)CC1 (stereo not drawn) [Example 23, 1-{1-[1-(5-Fluoro-indan-2-ylmethyl)-piperidin-4-yl]-5-methyl-1H-benzoimidazol-2-yl}-2-methyl-propan-2-ol; dihydrochloride] | 20 to 200 | 
15 | COC(=O)Nc1ccc2c(c1)C[C@H](CN1CC[C@@H](n3c(C(C)C)nc4cc(C)ccc43)[C@H](OC)C1)C2 [Example 77, {(R)-2-[(3R,4R)-4-(2-Isopropyl-5-methyl-benzoimidazol-1-yl)-3-methoxy-piperidin-1-ylmethyl]-indan-5-yl}-carbamic acid methyl ester] | 20 to 200 | 
16 | COC1CN(C[C@H]2Cc3ccc(C#N)cc3C2)CC[C@H]1n1c(C(C)(C)O)nc2cc(C)ccc21 (stereo in doubt) [Example 120, (S)-2-{(3R,4R)-4-[2-(1-Hydroxy-1-methyl-ethyl)-5-methyl-benzoimidazol-1-yl]-3-methoxy-piperidin-1-ylmethyl}-indan-5-carbonitrile] | < 20 | 
17 | Cc1ccc2c(c1)nc(C(C)(C)O)n2C1CCN(C[C@H]2Cc3ccc(Br)cc3C2)CC1 [Example 99, 2-{1-[1-((S)-5-Bromo-indan-2-ylmethyl)-piperidin-4-yl]-5-methyl-1H-benzoimidazol-2-yl}-propan-2-ol] | < 20 | 
18 | CCC(=O)Nc1ccc2c(c1)C[C@H](CN1CCC(n3c(C(C)(C)O)nc4cc(C)ccc43)CC1)C2 [Example 8, N-((R)-2-{4-[2-(1-Hydroxy-1-methyl-ethyl)-5-methyl-benzoimidazol-1-yl]-piperidin-1-ylmethyl}-indan-5-yl)-propionamide] | 20 to 200 | 
19 | Cc1ccc2c(c1)nc(C(C)(C)O)n2[C@@H]1CCN(C[C@H]2Cc3ccc(Br)cc3C2)CC1O (stereo in doubt) [Example 122, (3R,4R)-1-((S)-5-Bromo-indan-2-ylmethyl)-4-[2-(1-hydroxy-1-methyl-ethyl)-5-methyl-benzoimidazol-1-yl]-piperidin-3-ol] | < 20 | 
20 | Cc1ccc2c(c1)nc(C)n2[C@@H]1CCN(C[C@@H]2Cc3ccc(NC(=O)C(C)C)cc3C2)C[C@H]1OS(C)(=O)=O [Example 7, Methanesulfonic acid 4-(2,5-dimethyl-benzoimidazol-1-yl)-1-((R)-5-isobutyrylamino-indan-2-ylmethyl)-piperidin-3-yl ester] | 20 to 200 | 
21 | N-(2-{2-[4-(2,5-Dimethyl-benzoimidazol-1-yl)-piperidin-1-yl]-ethyl}-indan-5-yl)-isobutyramide [Example 58] | 200 to 5000 | 
22 | CO[C@@H]1CN(CC2Cc3ccncc3C2)CC[C@H]1n1c(C)nc2cc(C)ccc21 (stereo partly drawn) [Example 119, 1-[(3R,4R)-1-(6,7-Dihydro-5H-[2]pyrindin-6-ylmethyl)-3-methoxy-piperidin-4-yl]-2,5-dimethyl-1H-benzoimidazole] | 20 to 200 | 
23 | Cc1ccc2c(c1)CC(CN1CC[C@@H](n3c(C(C)(C)O)nc4cc(C)ccc43)[C@H](O)C1)C2 (stereo partly drawn) [Example 114, (3R,4R)-4-[2-(1-Hydroxy-1-methyl-ethyl)-5-methyl-benzoimidazol-1-yl]-1-(5-methyl-indan-2-ylmethyl)-piperidin-3-ol] | 20 to 200 | 
24 | CO[C@@H]1CN(CC2Cc3ccc(F)cc3C2)CC[C@H]1n1cnc2cc(C)ccc21 (stereo partly drawn) [Example 118, 1-[(3R,4R)-1-(5-Fluoro-indan-2-ylmethyl)-3-methoxy-piperidin-4-yl]-5-methyl-1H-benzoimidazole] | 200 to 5000 | 
25 | CO[C@@H]1CN(C[C@H]2Cc3ccc(Br)cc3C2)CC[C@H]1n1c(C(C)C)nc2cc(C)ccc21 [Example 18, 1-[(3R,4R)-1-((S)-5-Bromo-indan-2-ylmethyl)-3-methoxy-piperidin-4-yl]-2-isopropyl-5-methyl-1H-benzoimidazole] | 20 to 200 | 
26 | CO[C@H]1CN(C[C@@H]2Cc3ccc(NC(=O)C(F)F)cc3C2)CC[C@@H]1n1c(C2CC2)nc2cc(C)ccc21 [Example 63, N-{(R)-2-[(3S,4S)-4-(2-Cyclopropyl-5-methyl-benzoimidazol-1-yl)-3-methoxy-piperidin-1-ylmethyl]-indan-5-yl}-2,2-difluoro-acetamide] | < 20 | 
27 | CO[C@@H]1CN(C[C@@H]2Cc3ccc(Br)cc3C2)CC[C@H]1n1c(C(C)C)nc2cc(C)ccc21 [Example 89, 1-[(3R,4R)-1-((R)-5-Bromo-indan-2-ylmethyl)-3-methoxy-piperidin-4-yl]-2-isopropyl-5-methyl-1H-benzoimidazole] | 20 to 200 | 
28 | CO[C@H]1CN(CC2Cc3ccccc3C2)CC[C@@H]1n1c(C)nc2cc(C)ccc21 [Example 81, 1-((3S,4S)-1-Indan-2-ylmethyl-3-methoxy-piperidin-4-yl)-2,5-dimethyl-1H-benzoimidazole] | 200 to 5000 | 
29 | CO[C@@H]1CN(CC2Cc3ccc(C(C)C)cc3C2)CC[C@H]1n1c(C)nc2cc(C)ccc21 (stereo partly drawn) [Example 104, 1-[(3R,4R)-1-(5-Isopropyl-indan-2-ylmethyl)-3-methoxy-piperidin-4-yl]-2,5-dimethyl-1H-benzoimidazole] | 200 to 5000 | 
